Assay results from patent US8993628B2, “Synthetic ligands selective for LXRβ over LXRα, identification and methods of use thereof” (City of Hope, priority 2007, dated 2015).
“Also recorded” adds a separate entry of the source.

How the values were obtained:
SREBP1c = experiment: Gene expression analysis of endogenous LXR target gene SREBP1c in H4 cells; format: cell-based, human; conditions: compared with T0901317
Method: The effect of various concentrations of LXRβ-selective compounds on endogenous LXR target genes in H4 cells was examined. […] Induction of ABCG1, another lipid-transporter regulated by LXR, was also observed in H4 cells treated with T0901317, DY136 and DY142. […] Gene expression analysis was conducted to measure the endogenous LXR target genes. Briefly, cells were plated in a 6-well plate at the following densities/well: 0.35 million H4 cells (DMEM, 10% FBS), 0.5 million CCF-STTG1 (RPMI, 15% FBS), 1 million SH-SY5Y (RPMI, 15% FBS), or 1 million THP (RPMI, 15% FBS+100 nM TPA for 3 days to differentiate). The cells were treated the next day in serum-free DMEM supplemented with insulin, transferrin, and selenium and apoA1 (10 μg/ml). The media was harvested 24 hours later, mixed with a protease inhibitor cocktail (Roche), debris was pelleted (14000 g, 5 min.) and the supernatant saved for Aβ measurements (below). The cells were then rinsed with PBS and lysed with Trizol reagent. RNA isolation and cDNA synthesis (OmniScript, Qiagen) were as per manufacturer's protocol. […]

human LXRβ [1] = experiment: GAL4-LXRβ reporter gene assay in transiently transfected CV-1 cells; format: cell-based; conditions: for LXRβ-selectivity factor, fold activation of LXRβ/LXRα: 10 μM, CV-1 reporter gene assays; for activation of LXRβ: reporter gene assay, CV-1 cells
Method: (§1) Several potential LXR ligands were synthesized as described in Example 5. These compounds were assayed for activity on human LXRα and LXRβ using high-throughput reporter gene assays (e.g., reporter gene assays using Biomek automated workstation) in transiently transfected CV-1 cells.
(§2) In the reporter gene assay CV-1 cells were grown in Dulbecco's Modified Eagle's medium supplemented with 10% resin-charcoal stripped fetal bovine serum, 50 U/ml penicillin G and 50 μg/ml streptomycin sulfate (DMEM-FBS) at 37° C. in 5% CO2. One day prior to transfection, cells were plated to 50-80% confluence using phenol-red free DMEM-FBS. Cells were transiently transfected by lipofection with DOTAP. A GAL4 luciferase reporter construct (300 ng/10^5 cells) and cytomegalovirus driven expression vectors for GAL4-LXRα or GAL4-LXRβ (20-50 ng/10^5 cells) were added along with CMX-βgal (500 ng/10^5 cells) as an internal control. After 2 hours the liposomes were removed and cells treated for approximately 45 hours with phenol-red free DMEM-FBS containing the indicated LXR ligands. After exposure to ligand, the cells were harvested and assayed for luciferase and β-galactosidase activity. All points were assayed in triplicate. […] Use of reporter gene assays are known in the art and described for example in Sambrook et al., Molecular Cloning: A Laboratory Manual, 2nd Ed., Cold Spring Harbor Laboratory Press, Cold Spring Harbor, N.Y.

human LXRβ [2] = molecular target: T1, human LXRβ (Homo sapiens, UniProt P55055); experiment: as above; format: cell-based; conditions: reporter gene assay, CV-1 cells; FIG. 2 left; receptor subtype not stated
T1 construct: EC50; other: reporter gene assay, CV-1 cells
T1 sequence (P55055 222-460): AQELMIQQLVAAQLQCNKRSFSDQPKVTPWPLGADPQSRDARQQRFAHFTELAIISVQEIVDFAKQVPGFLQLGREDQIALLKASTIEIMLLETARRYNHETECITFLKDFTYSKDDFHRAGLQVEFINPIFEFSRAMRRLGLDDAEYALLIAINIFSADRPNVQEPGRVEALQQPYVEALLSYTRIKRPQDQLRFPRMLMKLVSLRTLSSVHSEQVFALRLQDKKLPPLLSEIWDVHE
Method: as §1, §2

ABCA1 = experiment: Gene expression analysis of endogenous LXR target gene ABCA1 in H4 cells; format: cell-based, human; conditions: for induction of ABCA1 expression: H4 neuroglioma cells, compared with T0901317
Method: (§3) The effect of various concentrations of LXRβ-selective compounds on endogenous LXR target genes in H4 cells was examined. […] Induction of ABCG1, another lipid-transporter regulated by LXR, was also observed in H4 cells treated with T0901317, DY136 and DY142. […] Gene expression analysis was conducted to measure the endogenous LXR target genes. Briefly, cells were plated in a 6-well plate at the following densities/well: 0.35 million H4 cells (DMEM, 10% FBS), 0.5 million CCF-STTG1 (RPMI, 15% FBS), 1 million SH-SY5Y (RPMI, 15% FBS), or 1 million THP (RPMI, 15% FBS+100 nM TPA for 3 days to differentiate). The cells were treated the next day in serum-free DMEM supplemented with insulin, transferrin, and selenium and apoA1 (10 μg/ml). The media was harvested 24 hours later, mixed with a protease inhibitor cocktail (Roche), debris was pelleted (14000 g, 5 min.) and the supernatant saved for Aβ measurements (below). The cells were then rinsed with PBS and lysed with Trizol reagent. RNA isolation and cDNA synthesis (OmniScript, Qiagen) were as per manufacturer's protocol. Gene expression analysis was done in triplicate with 30 ng of cDNA and the following primer-sets: ABCA1, ABCG1, SREBP1c, GAPDH, HPRT (either SYBR Green or FAM-labeled LUX primers (Invitrogen). None of these primers produce primer-dimers or amplified genomic DNA (all primer-sets are intron spanning). The signal for each target gene was normalized to GAPDH and/or HPRT.

ABCG1 = experiment: Gene expression analysis of endogenous LXR target gene ABCG1 in H4 cells; format: cell-based, human
Method: as §3

apoE = experiment: Gene expression analysis of apoE in H4 cells; format: cell-based, human; conditions: H4 neuroglioma cells
LXR = conditions: cited from earlier work
human LXRα = experiment: GAL4-LXRα reporter gene assay in transiently transfected CV-1 cells; format: cell-based
Method: as §1
In the reporter gene assay CV-1 cells were grown in Dulbecco's Modified Eagle's medium supplemented with 10% resin-charcoal stripped fetal bovine serum, 50 U/ml penicillin G and 50 μg/ml streptomycin sulfate (DMEM-FBS) at 37° C. in 5% CO2. One day prior to transfection, cells were plated to 50-80% confluence using phenol-red free DMEM-FBS. Cells were transiently transfected by lipofection with DOTAP. A GAL4 luciferase reporter construct (300 ng/10^5 cells) and cytomegalovirus driven expression vectors for GAL4-LXRα or GAL4-LXRβ (20-50 ng/10^5 cells) were added along with CMX-βgal (500 ng/10^5 cells) as an internal control. After 2 hours the liposomes were removed and cells treated for approximately 45 hours with phenol-red free DMEM-FBS containing the indicated LXR ligands. After exposure to ligand, the cells were harvested and assayed for luciferase and β-galactosidase activity. All points were assayed in triplicate. […]

[3] = system: primary neuronal and astrocyte cultures; conditions: cited from earlier work
C57BL/6 mice = conditions: 1 week of treatment; cited from earlier work
[4] = system: transgenic mice expressing human APPswe; conditions: one-week treatment; cited from earlier work
[5] = system: human H4 neuroglioma cells; experiment: Quantification of total cellular cholesterol in H4 cells (GC-MS); format: cell-based; conditions: 1 μM, 24 hours
Method: In order to confirm the effects of LXR activation on Aβ production in human cells, human H4 neuroglioma cells were treated with the pan-LXR agonist T0901317 (1 μM) for 24 hours and measured the amount of total cellular cholesterol remaining in the cells and the amount of Aβ40 secreted into the media (FIG. 1). As expected, T0901317 reduced both intracellular cholesterol levels as well as secreted Aβ40. […] Also as expected, T0901317 induced a greater than 50-fold increase in ABCA1 expression in H4 cells (FIG. 2). […] For quantification of total cellular cholesterol, H4 cells are seeded in 12-well plates at 70,000 per well. Cells are treated with DMSO (vehicle) or T0901317 in serum-free DMEM for 24 hours in presence of 10 μg/ml apoA1. Cells were lysed with 1N NaOH in 90% ethanol and 10 μM of 5α-cholestane as an internal control tracer. Cholesterol esters were hydrolyzed by incubation at 65° C. for 2 hours. Equal volume of water is added to the samples, and extracted twice with 2 volumes of hexane.

Aβ40 = Aβ40 secreted into the media of H4 cells (ELISA kit); format: cell-based, human; conditions: 1 μM, 24 hours
Method: In order to confirm the effects of LXR activation on Aβ production in human cells, human H4 neuroglioma cells were treated with the pan-LXR agonist T0901317 (1 μM) for 24 hours and measured the amount of total cellular cholesterol remaining in the cells and the amount of Aβ40 secreted into the media (FIG. 1). As expected, T0901317 reduced both intracellular cholesterol levels as well as secreted Aβ40. […] Also as expected, T0901317 induced a greater than 50-fold increase in ABCA1 expression in H4 cells (FIG. 2). […] To quantify Aβ production, cells were cultured as described above (gene expression analysis). Media was added to the diluent Buffer provided with the kit and assayed according to the manufacturer's instructions (Biosource).

[6] = system: mouse Neuro2A cells expressing human APPswe; conditions: cited from earlier work

Compound | induction of SREBP1c (SREBP1c) | LXRβ-selectivity factor, fold activation of LXRβ/LXRα (human LXRβ [1]) | EC50 (human LXRβ [2]) | induction of ABCA1 expression (ABCA1) | induction of ABCG1 (ABCG1) | ApoE expression (apoE) | association of LXR with a coactivator peptide derived from SRC-1 (LXR) | activation of LXRβ (human LXRβ [1]) | activation of LXRα (human LXRα) | cholesterol efflux [3] | hypertriglyceridemia (C57BL/6 mice) | Aβ40 and Aβ42 in the brain [4] | intracellular cholesterol levels (total cellular cholesterol) [5] | secreted Aβ40 (Aβ40) | increase in ABCA1 expression (ABCA1; H4 cells) | Aβ production [6]
O=C(O)Cc1cccc(OCCCN(Cc2cccc(C(F)(F)F)c2F)CC(c2ccccc2)c2ccccc2)c1 [DY136, (3-{3-[(2,2-Diphenyl-ethyl)-(2-fluoro-3-trifluoromethyl-benzyl)-amino]-propoxy}-phenyl)-acetic acid] | little effect; also recorded: only half that observed with T0901317 | 3.4 | 1 to 3 µM | expected activation; also recorded: to a level nearly that of the pan-agonist T0901317 | observed | increased | – | – | – | – | – | – | – | – | – | –
O=C(O)Cc1cccc(OCCCN(Cc2cccc(C(F)(F)F)c2)CC(c2ccccc2)c2ccccc2)c1 [DY142, (3-{3-[(2,2-Diphenyl-ethyl)-(3-trifluoromethyl-benzyl)-amino]-propoxy}-phenyl)-acetic acid] | little effect; also recorded: only half that observed with T0901317 | 6.5 | 1 to 3 µM | expected activation; also recorded: to a level nearly that of the pan-agonist T0901317 | observed | increased by all three ligands, although the effects were slightly lower | – | – | – | – | – | – | – | – | – | –
O=C(O)Cc1cccc(OCCCN(Cc2cccc(C(F)(F)F)c2Cl)CC(c2ccccc2)c2ccccc2)c1 [GW3965] | – | 2.2 | – | – | – | – | promotes association | activated | activated | – | – | – | – | – | – | –
O=S(=O)(c1ccccc1)N(CC(F)(F)F)c1ccc(C(O)(C(F)(F)F)C(F)(F)F)cc1 [T0901317] | – | 1.7 | – | – | observed | increased | – | activated | activated | enhanced cholesterol efflux | induces severe hypertriglyceridemia | significant decrease | reduced | reduced | greater than 50 fold | decreased
